Values of other authors in US5179079A, “Nasal formulation and intranasal administration therewith” (Novo Nordisk A/S, priority 1986, dated 1993).

Conditions: compared with intravenous administration

Row | SMILES | blood levels after absorption from the nasal cavity
1 | CC(C)NCC(O)COc1cccc2ccccc12 (centres unmarked) [propranolol] | blood levels almost equal to intraveneous administration
2 | CC(=O)[C@H]1CC[C@H]2[C@@H]3CCC4=CC(=O)CC[C@]4(C)[C@H]3CC[C@]12C [progesterone] | blood levels almost equal to intraveneous administration
